{"source": "paper PMC5742831", "about": "“Inhibitors of Serine Proteases from a Microcystis sp. Bloom Material Collected from Timurim Reservoir, Israel” (Marine Drugs, 2017)", "key": {"[1]": {"conditions": "HPLC mobile phase 0.1% TFA/MeCN, six degradation products from TFA catalyzed hydrolysis of the glutamine and Ahp residues, confirmed by LC-MS of the crude extract"}, "chymotrypsin": {"biological_target": "chymotrypsin (Bos taurus, UniProt P00766)", "assay": "Protease inhibition assay, chymotrypsin", "format": "biochemical", "conditions": "substrate SGGPNA; Tris buffer pH 7.5; 37 °C; 5 min pre-incubation; kinetic absorbance 405 nm over 30 min; dilutions 0.011 µM to 45.5 µM; 4-parameter logistic fit", "experimental": "A sigmoidal curve of the enzyme inhibition versus the concentration of the inhibitor was observed that was fit to the 4-parameters logistic model. Assays were performed in 96-well plate format.\nThe assay was performed in a Tris buffer (0.6 g TRIS HCl/100 mL H2O, pH 7.5). The enzyme and the substrate Suc-Gly-Gly-phenylalanine-p-nitroanilide (SGGPNA) were dissolved in the buffer at concentrations of 1 mg/mL. To each well were added 100 µL of buffer, 10 µL of enzyme, and 10 µL of sample. The plate was placed in the spectrophotometer at 37 °C. After 5 min, 100 µL of substrate solution was added to each well, and the plate was placed in the spectrophotometer for the kinetic measurement of the absorbance intensity over 30 min at a wavelength of 405 nm."}}, "data": [{"smiles": "CC(C)C[C@H]1C(=O)N(C)[C@@H](Cc2ccc(O)cc2)C(=O)N[C@@H](C(C)C)C(=O)O[C@H](C)[C@H](NC(=O)[C@H](Cc2ccc(O)cc2)NC(=O)[C@@H](O)Cc2ccc(O)cc2)C(=O)N[C@@H](CCC(N)=O)C(=O)N[C@H]2CC[C@@H](O)N1C2=O", "note": "[Micropeptin TR1058 (1)]", "values": [{"measurement": "Stability under the isolation conditions", "setting": "[1]", "value": "extremely unstable"}, {"measurement": "IC50", "setting": "chymotrypsin", "value": 6.78, "unit": "µM"}]}]}
